For one experiment, the system named is BRAPP. Nature of the experiment: Postemergence foliar-applied greenhouse weed control, direct-seeded rice system. Type of experiment: in vivo. The source says: Seeds or nutlets of the desired test plant species were planted in a soil matrix prepared by mixing a loam or sandy loam soil (e.g., 28.6 percent silt, 18.8 percent clay, and 52.6 percent sand, with a pH of about 5.8 and an organic matter content of about 1.8 percent) and calcareous grit in an 80 to 20 ratio. The soil matrix was contained in plastic pots with a volume of 1 quart and a surface area of 83.6 square centimeters (cm^2). When required to ensure good germination and healthy plants, a fungicide treatment and/or other chemical or physical treatment was applied. The plants were grown for 8-22 days in a greenhouse with an approximate 14 h photoperiod which was maintained at about 29° C. during the day and 26° C. during the night. Nutrients (Peters Excel® 15-5-15 5-Ca 2-Mg and iron chelate) were applied in the irrigation solution as needed and water was added on a regular basis. Supplemental lighting was provided with overhead metal halide 1000-Watt lamps as necessary. The plants were employed for testing when they reached the first through fourth true leaf stage.
Treatments consisted of the acid or esters of 4-amino-3-chloro-5-fluoro-6-(4-chloro-2-fluoro-3-methoxy-phenyl)pyridine-2-carboxylic acid (Compound A), each formulated as an SC (suspension concentrate), and various herbicidal components alone and in combination. Forms of compound A were applied on an acid equivalent basis.
Other herbicidal components were applied on an active ingredient basis and included diamuron formulated as an EC (emulsifiable concentrate) and oxaziclomefone (technical grade material).
Treatment requirements were calculated based upon the rates being tested, the concentration of active ingredient or acid equivalent in the formulation, and a 12 mL application volume at a rate of 187 L/ha.
For treatments comprised of formulated compounds, measured amounts of compounds were placed individually in 25 mL glass vials and diluted in a volume of 1.25% (v/v) Agri-Dex® crop oil concentrated to obtain 12× stock solutions. […] Application solutions were prepared by adding an appropriate amount of each stock solution (e.g., 1 mL) and diluted to the appropriate final concentrations with the addition of 10 mL of an aqueous mixture of 1.25% (v/v) crop oil concentrate so that the final spray solutions contained 1.25+/−0.05% (v/v) crop oil concentrate.
For treatments comprised of technical compounds, weighed amounts can be placed individually in 25 mL glass vials and dissolved in a volume of 97:3 v/v acetone/DMSO to obtain 12× stock solutions. […] Application solutions can be prepared by adding an appropriate amount of each stock solution (e.g., 1 mL) and diluted to the appropriate final concentrations with the addition of 10 mL of an aqueous mixture of 1.5% (v/v) crop oil concentrate so that the final spray solutions contain 1.25% (v/v) crop oil concentrate. When technical materials are used, the concentrated stock solutions can be added to the spray solutions so that the final acetone and DMSO concentrations of the application solutions are 16.2% and 0.5%, respectively.
For treatments comprised of formulated and technical compounds, weighed amounts of the technical materials were placed individually in 25 mL glass vials and dissolved in a volume of 97:3 v/v acetone/DMSO to obtain 12× stock solutions, and measured amounts of the formulated compounds were placed individually in 25 mL glass vials and diluted in a volume of 1.5% (v/v) crop oil concentrate or water to obtain 12× stock solutions. […] Application solutions were prepared by adding an appropriate amount of each stock solution (e.g., 1 mL) and diluted to the appropriate final concentrations with the addition of an appropriate amount of an aqueous mixture of 1.5% (v/v) crop oil concentrate so that the final spray solutions contained 1.25% (v/v) crop oil concentrate. […]

The next experiment deals with ECHOR. The experiment in a line: In-water applied greenhouse weed control, transplanted paddy rice system. Type of experiment: in vivo, Echinochloa oryzoides (Ard.) Fritsch. The conditions noted are these: in-water application. The method, then: Weed seeds or nutlets of the desired test plant species were planted in puddled soil (mud) prepared by mixing a shredded, non-sterilized mineral soil (50.5 percent silt, 25.5 percent clay, and 24 percent sand, with a pH of about 7.6 and an organic matter content of about 2.9 percent) and water at a 1:1 volumetric ratio. The prepared mud was dispensed in 365 mL aliquots into 16-ounce (oz.) non-perforated plastic pots with a surface area of 86.59 square centimeters (cm^2) leaving a headspace of 3 centimeters (cm) in each pot. Mud was allowed to dry overnight prior to planting or transplanting. Rice seeds were planted in Sun Gro MetroMix® 306 planting mixture, which typically has a pH of 6.0 to 6.8 and an organic matter content of about 30 percent, in plastic plug trays. Seedlings at the second or third leaf stage of growth were transplanted into 840 mL of mud contained in 32-oz. non-perforated plastic pots with a surface area of 86.59 cm^2 4 days prior to herbicide application. The paddy was created by filling the headspace of the pots with 2.5 to 3 cm of water. When required to ensure good germination and healthy plants, a fungicide treatment and/or other chemical or physical treatment was applied. The plants were grown for 4-22 days in a greenhouse with an approximate 14 h photoperiod which was maintained at about 29° C. during the day and 26° C. during the night. Nutrients were added as Osmocote® (19:6:12, N:P:K+ minor nutrients) at 2 g per 16-oz. pot and 4 g per 32-oz. pot. Water was added on a regular basis to maintain the paddy flood, and supplemental lighting was provided with overhead metal halide 1000-Watt lamps as necessary. The plants were employed for testing when they reached the first through fourth true leaf stage.
Treatments consisted of the acid or esters of 4-amino-3-chloro-5-fluoro-6-(4-chloro-2-fluoro-3-methoxy-phenyl)pyridine-2-carboxylic acid (compound A) each formulated as an SC and various herbicidal components alone and in combination. Forms of compound A were applied on an acid equivalent basis.
Other herbicidal components were applied on an active ingredient basis and included daimuron formulated as an EC, bromobutide (technical grade material), and oxaziclomefone (technical grade material).
Treatment requirements for each compound or herbicidal component were calculated based upon the rates being tested, the concentration of active ingredient or acid equivalent in the formulation, an application volume of 2 mL per component per pot, and an application area of 86.59 cm^2 per pot.
For formulated compounds, a measured amount was placed in an individual 100 or 200 mL glass vial and was dissolved in a volume of 1.25% (v/v) Agri-Dex® crop oil concentrate to obtain application solutions.
For technical grade compounds, a weighed amount was placed in an individual 100 to 200 mL glass vial and was dissolved in a volume of acetone to obtain concentrated stock solutions. […] The concentrated stock solutions obtained were diluted with an equivalent volume of an aqueous mixture containing 2.5% (v/v) crop oil concentrate so that the final application solutions contained 1.25% (v/v) crop oil concentrate.
Applications were made by injecting, with a pipetter, appropriate amounts of the application solutions, individually and sequentially, into the aqueous layer of the paddy. Control plants were treated in the same manner with the solvent blank. Applications were made so that all treated plant material received the same concentrations of acetone and crop oil concentrate.
The treated plants and control plants were placed in a greenhouse as described above and water was added as needed to maintain a paddy flood. After approximately 3 weeks the condition of the test plants as compared with that of the untreated plants was determined visually and scored on a scale of 0 to 100 percent where 0 corresponds to no injury or growth inhibition and 100 corresponds to complete kill. […]

`COc1c(Cl)ccc(-c2nc(C(=O)OCc3ccccc3)c(Cl)c(N)c2F)c1F` [Compound A Benzyl Ester]: the “Visual Weed Control (%) - 20 DAA BRAPP Obs” value with BRAPP (Compound A Benzyl Ester 4.38 gae/ha alone) worked out at 50%; in the experiment with BRAPP (Compound A Benzyl Ester 8.75 gae/ha alone), 70%. The figures for the “Visual Weed Control (%) - 21 DAA ECHOR Obs” value in the experiment on ECHOR (Compound A Benzyl Ester 8 gae/ha alone), with ECHOR (Compound A Benzyl Ester 16 gae/ha alone) and in the experiment on ECHOR (Compound A Benzyl Ester 32 gae/ha alone) were 8%, 5% and 13%, respectively.

The record behind these values is patent publication US8889591B2, “Herbicidal compositions comprising 4-amino-3-chloro-5-fluoro-6-(4-chloro-2-fluoro-3-methoxyphenyl)pyridine-2-carboxylic acid or a derivative thereof and bromobutide, daimuron, oxaziclomefone or pyributicarb” (Dow Agrosciences LLC, priority 2012, dated 2014).
